# From patent US6355799B1, “Substituted benzene compounds, process for their preparation, and herbicidal and defoliant compositions containing them” (ISK Americas Incorporated, priority 1997, dated 2002)
# What was measured:
# Assay type in all cases: in vivo
# [1] = test system: redroot pigweed (Amaranthus retroflexus, AMARE); experiment: Pre-emerge test, greenhouse herbicide activity screening; conditions: pre-emerge, 14 days after application, scale 0-100
# Procedure, shortened: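 Rating: 0–100 visual injury, 14 DAA. Application: acetone, 187 l/ha, 15–1000 g ai/ha, flat-fan track sprayer with nozzle 40–45 cm above soil or canopy. Post-emerge runs used 0.25% v/v surfactant on 2–3 leaf plants.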
# [2] = test system: field corn (Zea mays L., var. Dekalb 535, CORN); experiment: Pre-emerge test, crop safety; conditions: pre-emerge, 14 days after application, scale 0-100
# Procedure, shortened: (§1)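 Applied at 15–1000 g ai/ha from acetone in 187 l/ha spray volume. Post-emergence applications included 0.25% v/v non-ionic surfactant and reached plants sown 8–21 days before. Pre-emergence applications were incorporated by surface watering. Efficacy or crop damage was rated on a 0–100 scale after 14 days.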
# [3] = test system: upland rice (Oryza sp., var. Tebonnet, RICE); experiment: Pre-emerge test, crop safety; conditions: pre-emerge, 14 days after application, scale 0-100
# Procedure, shortened: as §1
# [4] = test system: ivyleaf morningglory (Ipomoea hederacea, IPOHE); experiment: Post-emerge test, greenhouse herbicide activity screening; conditions: post-emerge, 14 days after application, rating scale 0-100
# Procedure, shortened: (§2)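 Visual ratings on a 0-100 scale (0 no damage, 100 all plants dead) were taken at 14 days after treatment. Rates of 15-1000 g ai/ha in acetone, 187 l/ha, were sprayed onto soil one day after planting (pre-emerge) or onto 2-3 leaf plants with 0.25% v/v surfactant (post-emerge).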
# [5] = test system: redroot pigweed (Amaranthus retroflexus, AMARE); experiment: as above; conditions: post-emerge, 14 days after application, rating scale 0-100
# Procedure, shortened: as §2
# [6] = test system: johnsongrass (Sorghum halepense, SORHA); experiment: as above; conditions: post-emerge, 14 days after application, rating scale 0-100
# Procedure, shortened: as §2
# [7] = test system: velvetleaf (Abutilon theophrasti, ABUTH); experiment: as above; conditions: post-emerge, 14 days after application, rating scale 0-100
# Procedure, shortened: as §2
# [8] = test system: large crabgrass (Digitaria sanguinalis, DIGSA); experiment: as above; conditions: post-emerge, 14 days after application, rating scale 0-100
# Procedure, shortened: as §2
# [9] = test system: sicklepod (Cassia obtusifolia, CASOB); experiment: as above; conditions: post-emerge, 14 days after application, rating scale 0-100
# Procedure, shortened: as §2
# [10] = test system: green foxtail (Setaria viridis, SETVI); experiment: as above; conditions: post-emerge, 14 days after application, rating scale 0-100
# Procedure, shortened: as §2
# [11] = test system: barnyardgrass (Echinochloa crus-galli, ECHCG); experiment: as above; conditions: post-emerge, 14 days after application, rating scale 0-100
# Procedure, shortened: as §2
# [12] = test system: lambsquarters (Chenopodium album, CHEAL); experiment: as above; conditions: post-emerge, 14 days after application, rating scale 0-100
# Procedure, shortened: as §2
# [13] = test system: ivyleaf morningglory (Ipomoea hederacea, IPOHE); experiment: Pre-emerge test, greenhouse herbicide activity screening; conditions: pre-emerge, 14 days after application, scale 0-100
# Procedure, shortened: as §2
# [14] = test system: johnsongrass (Sorghum halepense, SORHA); experiment: as above; conditions: pre-emerge, 14 days after application, scale 0-100
# Procedure, shortened: as §2
# [15] = test system: velvetleaf (Abutilon theophrasti, ABUTH); experiment: as above; conditions: pre-emerge, 14 days after application, scale 0-100
# Procedure, shortened: as §2
# [16] = test system: large crabgrass (Digitaria sanguinalis, DIGSA); experiment: as above; conditions: pre-emerge, 14 days after application, scale 0-100
# Procedure, shortened: as §2
# [17] = test system: sicklepod (Cassia obtusifolia, CASOB); experiment: as above; conditions: pre-emerge, 14 days after application, scale 0-100
# Procedure, shortened: as §2
# [18] = test system: green foxtail (Setaria viridis, SETVI); experiment: as above; conditions: pre-emerge, 14 days after application, scale 0-100
# Procedure, shortened: as §2
# [19] = test system: barnyardgrass (Echinochloa crus-galli, ECHCG); experiment: as above; conditions: pre-emerge, 14 days after application, scale 0-100
# Procedure, shortened: as §2
# [20] = test system: lambsquarters (Chenopodium album, CHEAL); experiment: as above; conditions: pre-emerge, 14 days after application, scale 0-100
# Procedure, shortened: as §2
# [21] = test system: field corn (Zea mays L., var. Dekalb 535, CORN); experiment: Post-emerge test, crop safety; conditions: post-emerge, 14 days after application, rating scale 0-100
# Procedure, shortened: as §2
# [22] = test system: upland rice (Oryza sp., var. Tebonnet, RICE); experiment: Post-emerge test, crop safety; conditions: post-emerge, 14 days after application, rating scale 0-100
# Procedure, shortened: as §2
structure (smiles),measurement,setting,value
COc1c(Cl)cc(F)c(-n2c(=O)cc(C(F)(F)F)n(C)c2=O)c1NC(=O)c1ccc2ccccc2c1OC [2-153],phytotoxicity rating AMARE,[1]; 63 g ai/ha,100
same,phytotoxicity rating AMARE,[1]; 250 g ai/ha,100
same,phytotoxicity rating CORN (crop damage),[2]; 63 g ai/ha,0
same,phytotoxicity rating CORN (crop damage),[2]; 250 g ai/ha,0
same,phytotoxicity rating RICE (crop damage),[3]; 63 g ai/ha,0
same,phytotoxicity rating RICE (crop damage),[3]; 250 g ai/ha,20
same,IPOHE phytotoxicity rating,[4]; 63 g ai/ha,100
same,IPOHE phytotoxicity rating,[4]; 250 g ai/ha,95
same,AMARE phytotoxicity rating,[5]; 63 g ai/ha,60
same,AMARE phytotoxicity rating,[5]; 250 g ai/ha,90
same,SORHA phytotoxicity rating,[6]; 63 g ai/ha,0
same,SORHA phytotoxicity rating,[6]; 250 g ai/ha,20
same,ABUTH phytotoxicity rating,[7]; 63 g ai/ha,95
same,ABUTH phytotoxicity rating,[7]; 250 g ai/ha,100
same,DIGSA phytotoxicity rating,[8]; 63 g ai/ha,0
same,DIGSA phytotoxicity rating,[8]; 250 g ai/ha,10
same,CASOB phytotoxicity rating,[9]; 63 g ai/ha,0
same,CASOB phytotoxicity rating,[9]; 250 g ai/ha,30
same,SETVI phytotoxicity rating,[10]; 63 g ai/ha,20
same,SETVI phytotoxicity rating,[10]; 250 g ai/ha,30
same,ECHCG phytotoxicity rating,[11]; 63 g ai/ha,10
same,ECHCG phytotoxicity rating,[11]; 250 g ai/ha,20
same,CHEAL phytotoxicity rating,[12]; 63 g ai/ha,80
same,CHEAL phytotoxicity rating,[12]; 250 g ai/ha,95
same,phytotoxicity rating IPOHE,[13]; 63 g ai/ha,0
same,phytotoxicity rating IPOHE,[13]; 250 g ai/ha,0
same,phytotoxicity rating SORHA,[14]; 63 g ai/ha,10
same,phytotoxicity rating SORHA,[14]; 250 g ai/ha,0
same,phytotoxicity rating ABUTH,[15]; 63 g ai/ha,20
same,phytotoxicity rating ABUTH,[15]; 250 g ai/ha,50
same,phytotoxicity rating DIGSA,[16]; 63 g ai/ha,0
same,phytotoxicity rating DIGSA,[16]; 250 g ai/ha,40
same,phytotoxicity rating CASOB,[17]; 63 g ai/ha,0
same,phytotoxicity rating CASOB,[17]; 250 g ai/ha,0
same,phytotoxicity rating SETVI,[18]; 63 g ai/ha,30
same,phytotoxicity rating SETVI,[18]; 250 g ai/ha,90
same,phytotoxicity rating ECHCG,[19]; 63 g ai/ha,0
same,phytotoxicity rating ECHCG,[19]; 250 g ai/ha,0
same,phytotoxicity rating CHEAL,[20]; 63 g ai/ha,70
same,phytotoxicity rating CHEAL,[20]; 250 g ai/ha,90
same,CORN phytotoxicity rating (crop damage),[21]; 63 g ai/ha,5
same,CORN phytotoxicity rating (crop damage),[21]; 250 g ai/ha,5
same,RICE phytotoxicity rating (crop damage),[22]; 63 g ai/ha,0
same,RICE phytotoxicity rating (crop damage),[22]; 250 g ai/ha,10
COc1c(Cl)cc(F)c(-n2c(=O)cc(C(F)(F)F)n(C)c2=O)c1NC(=O)c1cc2ccccc2cc1C [2-155],phytotoxicity rating AMARE,[1]; 63 g ai/ha,100
same,phytotoxicity rating AMARE,[1]; 125 g ai/ha,100
same,phytotoxicity rating CORN (crop damage),[2]; 63 g ai/ha,0
same,phytotoxicity rating CORN (crop damage),[2]; 125 g ai/ha,15
same,phytotoxicity rating RICE (crop damage),[3]; 63 g ai/ha,30
same,phytotoxicity rating RICE (crop damage),[3]; 125 g ai/ha,60
same,IPOHE phytotoxicity rating,[4]; 63 g ai/ha,100
same,IPOHE phytotoxicity rating,[4]; 125 g ai/ha,100
same,AMARE phytotoxicity rating,[5]; 63 g ai/ha,100
same,AMARE phytotoxicity rating,[5]; 125 g ai/ha,100
same,SORHA phytotoxicity rating,[6]; 63 g ai/ha,30
same,SORHA phytotoxicity rating,[6]; 125 g ai/ha,50
same,ABUTH phytotoxicity rating,[7]; 63 g ai/ha,100
same,ABUTH phytotoxicity rating,[7]; 125 g ai/ha,100
same,DIGSA phytotoxicity rating,[8]; 63 g ai/ha,40
same,DIGSA phytotoxicity rating,[8]; 125 g ai/ha,50
same,CASOB phytotoxicity rating,[9]; 63 g ai/ha,100
same,CASOB phytotoxicity rating,[9]; 125 g ai/ha,100
same,SETVI phytotoxicity rating,[10]; 63 g ai/ha,50
same,SETVI phytotoxicity rating,[10]; 125 g ai/ha,70
same,ECHCG phytotoxicity rating,[11]; 63 g ai/ha,30
same,ECHCG phytotoxicity rating,[11]; 125 g ai/ha,60
same,CHEAL phytotoxicity rating,[12]; 63 g ai/ha,100
same,CHEAL phytotoxicity rating,[12]; 125 g ai/ha,100
same,phytotoxicity rating IPOHE,[13]; 63 g ai/ha,0
same,phytotoxicity rating IPOHE,[13]; 125 g ai/ha,40
same,phytotoxicity rating SORHA,[14]; 63 g ai/ha,30
same,phytotoxicity rating SORHA,[14]; 125 g ai/ha,70
same,phytotoxicity rating ABUTH,[15]; 63 g ai/ha,100
same,phytotoxicity rating ABUTH,[15]; 125 g ai/ha,100
same,phytotoxicity rating DIGSA,[16]; 63 g ai/ha,85
same,phytotoxicity rating DIGSA,[16]; 125 g ai/ha,100
same,phytotoxicity rating CASOB,[17]; 63 g ai/ha,0
same,phytotoxicity rating CASOB,[17]; 125 g ai/ha,30
same,phytotoxicity rating SETVI,[18]; 63 g ai/ha,60
same,phytotoxicity rating SETVI,[18]; 125 g ai/ha,95
same,phytotoxicity rating ECHCG,[19]; 63 g ai/ha,50
same,phytotoxicity rating ECHCG,[19]; 125 g ai/ha,70
same,phytotoxicity rating CHEAL,[20]; 63 g ai/ha,100
same,phytotoxicity rating CHEAL,[20]; 125 g ai/ha,100
same,CORN phytotoxicity rating (crop damage),[21]; 63 g ai/ha,70
same,CORN phytotoxicity rating (crop damage),[21]; 125 g ai/ha,90
same,RICE phytotoxicity rating (crop damage),[22]; 63 g ai/ha,25
same,RICE phytotoxicity rating (crop damage),[22]; 125 g ai/ha,80
COc1c(Cl)cc(F)c(-n2c(=O)cc(C(F)(F)F)n(C)c2=O)c1NC(=O)CSC [2-168],phytotoxicity rating AMARE,[1]; 63 g ai/ha,90
same,phytotoxicity rating AMARE,[1]; 250 g ai/ha,100
same,phytotoxicity rating CORN (crop damage),[2]; 63 g ai/ha,0
same,phytotoxicity rating RICE (crop damage),[3]; 63 g ai/ha,20
same,phytotoxicity rating RICE (crop damage),[3]; 250 g ai/ha,60
same,IPOHE phytotoxicity rating,[4]; 63 g ai/ha,60
same,IPOHE phytotoxicity rating,[4]; 250 g ai/ha,100
same,AMARE phytotoxicity rating,[5]; 63 g ai/ha,20
same,AMARE phytotoxicity rating,[5]; 250 g ai/ha,50
same,SORHA phytotoxicity rating,[6]; 63 g ai/ha,0
same,SORHA phytotoxicity rating,[6]; 250 g ai/ha,0
same,ABUTH phytotoxicity rating,[7]; 63 g ai/ha,60
same,ABUTH phytotoxicity rating,[7]; 250 g ai/ha,100
same,DIGSA phytotoxicity rating,[8]; 63 g ai/ha,0
same,DIGSA phytotoxicity rating,[8]; 250 g ai/ha,0
same,CASOB phytotoxicity rating,[9]; 63 g ai/ha,0
same,CASOB phytotoxicity rating,[9]; 250 g ai/ha,80
same,SETVI phytotoxicity rating,[10]; 63 g ai/ha,0
same,SETVI phytotoxicity rating,[10]; 250 g ai/ha,10
same,ECHCG phytotoxicity rating,[11]; 63 g ai/ha,0
same,ECHCG phytotoxicity rating,[11]; 250 g ai/ha,0
same,CHEAL phytotoxicity rating,[12]; 63 g ai/ha,30
same,CHEAL phytotoxicity rating,[12]; 250 g ai/ha,50
same,phytotoxicity rating IPOHE,[13]; 63 g ai/ha,40
same,phytotoxicity rating IPOHE,[13]; 250 g ai/ha,90
same,phytotoxicity rating SORHA,[14]; 63 g ai/ha,0
same,phytotoxicity rating SORHA,[14]; 250 g ai/ha,90
same,phytotoxicity rating ABUTH,[15]; 63 g ai/ha,60
same,phytotoxicity rating ABUTH,[15]; 250 g ai/ha,100
same,phytotoxicity rating DIGSA,[16]; 63 g ai/ha,0
same,phytotoxicity rating DIGSA,[16]; 250 g ai/ha,80
same,phytotoxicity rating CASOB,[17]; 63 g ai/ha,30
same,phytotoxicity rating CASOB,[17]; 250 g ai/ha,80
same,phytotoxicity rating SETVI,[18]; 63 g ai/ha,10
same,phytotoxicity rating SETVI,[18]; 250 g ai/ha,95
same,phytotoxicity rating ECHCG,[19]; 63 g ai/ha,0
same,phytotoxicity rating ECHCG,[19]; 250 g ai/ha,20
same,phytotoxicity rating CHEAL,[20]; 63 g ai/ha,100
same,phytotoxicity rating CHEAL,[20]; 250 g ai/ha,100
same,CORN phytotoxicity rating (crop damage),[21]; 63 g ai/ha,5
same,CORN phytotoxicity rating (crop damage),[21]; 250 g ai/ha,10
same,RICE phytotoxicity rating (crop damage),[22]; 63 g ai/ha,10
same,RICE phytotoxicity rating (crop damage),[22]; 250 g ai/ha,30
